Test system: cell laminate comprising a vascular endothelial cell layer and a smooth muscle cell layer on an HCM
Assay: Evaluation of response to physiologically active substances (thrombin added to cell laminate, microscopy)
Type: cell-based
Conditions: 37° C., 30 minutes, rat VEC/SMC-HCM insert
Experimental: (1) 0.1 mg (100 UN) of thrombin (#T7009-100UN, Sigma) was dissolved in 100 μL of physiological saline to prepare a thrombin solution having a concentration of 1000 U/mL. The thrombin solution was further diluted with HBSS(+) to prepare a 25 U/mL thrombin solution and a 100 U/mL thrombin solution.
(2) 900 μL of HBSS(+) was added to each of the wells of a 24-well plate.
(3) The inserts comprising the cell laminate were taken out of the medium, the medium was removed from the inner side of each insert using an aspirator, and the inserts were placed in the wells.
(4) 200 μL of either HBSS(+) (control), the 25 U/mL thrombin solution, or the 100 U/mL thrombin solution was added to the inner side of each of the inserts placed on the wells, and the inserts were incubated at 37° C. for 30 minutes.
(5) The state of the cell laminate was observed under a microscope. The microscopic image of the cell laminate is shown in FIG. 9 (superimposed image of red fluorescence: VE-cadherin and green fluorescence: α-smooth muscle actin).

Substance: thrombin
- cell contraction (25 U/mL or 100 U/mL thrombin solution, HBSS(+) control): cell contraction due to activation of actin stress fibers caused by the addition of thrombin was observed
- dependence of cell contraction on thrombin concentration (25 U/mL versus 100 U/mL thrombin solution): Higher thrombin concentrations caused stronger cell contractions

Source: US12351789B2, “Method for producing cell laminate” (FUJIFILM CORPORATION, priority 2017, dated 2025)
